Data on 35 compounds can be found in ChEMBL document CHEMBL1944561, “Discovery and SAR exploration of a novel series of imidazo[4,5-b]pyrazin-2-ones as potent and selective mTOR kinase inhibitors” (Bioorg Med Chem Lett, 2011).

The target of data set [1] is T1, Serine/threonine-protein kinase mTOR (Homo sapiens, UniProt P42345). Put plainly: Inhibition of mTOR.
A further data set relates to PC-3. Put plainly: Antiproliferative activity against human PC3 cells.
The target in data set [2] is T1, Serine/threonine-protein kinase mTOR. Nature of the data set: Inhibition of mTOR-mediated S6 phosphorylation in human PC3 cells. Format: cell-based, PC-3.
For data set [3] the target is unchanged. Nature of the data set: Inhibition of mTOR-mediated Akt phosphorylation in human PC3 cells. Format: cell-based, PC-3.
For data set [4], the target named is Phosphatidylinositol 4,5-bisphosphate 3-kinase catalytic subunit alpha isoform (Homo sapiens, UniProt P42336). Put plainly: Inhibition of PI3Kalpha.
Sequence of Phosphatidylinositol 4,5-bisphosphate 3-kinase catalytic subunit alpha isoform (P42336 whole entry, canonical isoform): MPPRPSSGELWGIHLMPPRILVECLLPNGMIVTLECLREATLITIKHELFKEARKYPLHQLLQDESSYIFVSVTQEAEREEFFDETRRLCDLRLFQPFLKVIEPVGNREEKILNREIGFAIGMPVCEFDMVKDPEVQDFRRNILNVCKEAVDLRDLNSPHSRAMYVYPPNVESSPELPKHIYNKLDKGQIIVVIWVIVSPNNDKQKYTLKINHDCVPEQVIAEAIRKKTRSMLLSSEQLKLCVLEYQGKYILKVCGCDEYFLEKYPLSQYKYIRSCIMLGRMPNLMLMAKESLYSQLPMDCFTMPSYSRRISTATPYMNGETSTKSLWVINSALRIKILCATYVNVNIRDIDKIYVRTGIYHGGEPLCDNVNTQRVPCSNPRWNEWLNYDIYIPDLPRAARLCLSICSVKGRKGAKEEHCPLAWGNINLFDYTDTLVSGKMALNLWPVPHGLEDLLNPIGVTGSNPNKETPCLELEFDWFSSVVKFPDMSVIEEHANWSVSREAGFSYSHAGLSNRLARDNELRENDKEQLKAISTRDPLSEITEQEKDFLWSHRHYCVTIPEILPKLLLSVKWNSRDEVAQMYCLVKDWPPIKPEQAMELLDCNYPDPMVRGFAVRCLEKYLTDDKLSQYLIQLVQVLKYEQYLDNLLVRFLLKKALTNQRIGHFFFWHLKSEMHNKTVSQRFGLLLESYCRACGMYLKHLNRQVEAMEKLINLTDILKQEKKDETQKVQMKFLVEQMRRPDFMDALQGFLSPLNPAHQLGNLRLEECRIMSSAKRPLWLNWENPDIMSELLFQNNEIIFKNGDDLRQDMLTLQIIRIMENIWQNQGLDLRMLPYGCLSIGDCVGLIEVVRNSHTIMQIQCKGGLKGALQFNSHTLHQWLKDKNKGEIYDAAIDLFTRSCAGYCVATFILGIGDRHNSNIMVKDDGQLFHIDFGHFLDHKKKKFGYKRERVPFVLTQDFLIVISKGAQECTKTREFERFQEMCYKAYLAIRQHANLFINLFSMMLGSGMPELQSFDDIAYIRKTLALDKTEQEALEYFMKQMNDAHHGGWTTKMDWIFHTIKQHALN
Data set [5] in a line: Metabolic stability in rat hepatocytes assessed as compound remaining after 60 mins. The settings on record: read-out: Stability. Format: ADME, cell-based, Hepatocyte.

pIC50: −log10 of the molar value.

Regarding `O=c1[nH]c2ncc(-c3ccc4cc[nH]c4c3)nc2n1CC1CCCCC1`, the pIC50 – broadly, the IC50 on a negative log10 scale, so that one unit is a factor of ten – in data set [1] is 5.46.
Take `Nc1nc2ccc(-c3cnc4[nH]c(=O)n(CC5CCCCC5)c4n3)cc2[nH]1`: the pIC50 was 6.25 with PC-3, 6.70 in data set [2], 7.04 in data set [3] and 8.70 in data set [1].
For `NC(=O)[C@H]1CC[C@@H](n2c(=O)[nH]c3ncc(-c4ccc(O)cc4)nc32)CC1`, in that order: less than 5.30, less than 5.30, less than 5.30 and 6.75.
For the compound `O=C(O)c1ccc(-c2cnc3[nH]c(=O)n(CC4CCCCC4)c3n2)cc1`, the results for the pIC50 in data set [1] and in data set [4] were 6.89 and 4.63, respectively.
Turning to `O=c1[nH]c2ncc(-c3ccc(O)cc3)nc2n1C1CCCCC1`, the pIC50 in data set [1] is 5.54.
Same read-out and setting: the same measure for `O=c1[nH]c2ncc(-c3ccc4[nH]cnc4c3)nc2n1CC1CCOCC1`: 7.52; for `O=c1[nH]c2ncc(-c3ccc(-c4nc[nH]n4)cc3)nc2n1CC1CCCCC1`: 8.05.
Still for that read-out and setting: the same measure for `O=c1[nH]c2ncc(-c3ccc(O)cc3)nc2n1C1CCOCC1`: 5.78.
The compound `CO[C@H]1C[C@@H]2CC[C@@H](C)[C@@](O)(O2)C(=O)C(=O)N2CCCC[C@H]2C(=O)O[C@H]([C@H](C)C[C@@H]2CC[C@@H](O)[C@H](OC)C2)CC(=O)[C@H](C)/C=C(\C)[C@@H](O)[C@@H](OC)C(=O)[C@H](C)C[C@H](C)/C=C/C=C/C=C/1C` [SIROLIMUS] gave a pIC50 with PC-3 greater than 8.00.
As to `O=c1[nH]c2ncc(-c3ccc(O)cc3)nc2n1CC1CCOCC1`, in data set [1], the pIC50 was 6.47.
The same measure, in the same setting: the same measure for `O=c1[nH]c2ncc(-c3ccc(O)cc3)nc2n1CC1CCCCC1`: 6.11.
Consider `O=c1[nH]c2ncc(-c3ccc(CO)cc3)nc2n1CC1CCCCC1`, for which the remaining at 1 h in data set [5] was 8%. Also, the pIC50 is 7.22 in data set [1] and less than 4.52 in data set [4].
Consider `NCc1ccc(-c2cnc3[nH]c(=O)n(CC4CCCCC4)c3n2)cc1`, for which the pIC50 in data set [1] is 5.08.
For the compound `O=c1[nH]c2ncc(-c3cnc4[nH]cnc4c3)nc2n1CC1CCOCC1`, the pIC50 in data set [1] was 6.41.
In turn, `O=c1[nH]c2ncc(-c3ccc(-c4ncc[nH]4)cc3)nc2n1CC1CCOCC1` gave a pIC50 in the data set on PC-3 of 6.04.
For the compound `O=c1[nH]c2ncc(-c3ccc(-n4ccnn4)cc3)nc2n1CC1CCCCC1`, the pIC50 in data set [1] is less than 5.00.
On the same count and under the same terms, the result for `O=c1[nH]c2ncc(-c3ccc(-c4cnco4)cc3)nc2n1CC1CCCCC1` reads 5.87; that for `O=c1[nH]c2ncc(-c3ccc(-c4nn[nH]n4)cc3)nc2n1CC1CCCCC1`, 5.80; that for `O=c1[nH]c2ncc(-c3ccccc3)nc2n1CC1CCCCC1`, less than 5.00.
Turning to `CNc1nc2cc(-c3cnc4[nH]c(=O)n(CC5CCOCC5)c4n3)ccc2[nH]1`, the pIC50 in the data set on PC-3 is less than 5.30; in data set [2] it was less than 5.30; in data set [1], 8.22; in data set [4] it was less than 4.52.
Take `CC(C)NC(=O)c1ccc(-c2cnc3[nH]c(=O)n(CC4CCCCC4)c3n2)cc1`: in data set [1], the pIC50 is 5.05.
`COC(=O)c1ccc(-c2cnc3[nH]c(=O)n(CC4CCCCC4)c3n2)cc1`: the pIC50 in data set [1] was less than 5.00.
The same measure, in the same setting: the same measure for `O=c1[nH]c2ncc(-c3ccc(O)cc3)nc2n1Cc1cccc(O)c1`: 5.98; for `COCCn1c(=O)[nH]c2ncc(-c3ccc(O)cc3)nc21`: 5.62; for `CC(C)Cn1c(=O)[nH]c2ncc(-c3ccc(O)cc3)nc21`: 5.99.
`Nc1nc2cc(-c3cnc4[nH]c(=O)n(CC5CCOCC5)c4n3)ccc2[nH]1` gave a pIC50 in data set [1] of 8.00.
On to `O=c1[nH]c2ncc(-c3ccc4[nH]ccc4c3)nc2n1CC1CCCCC1`, for which the pIC50 in data set [1] is 7.20; in data set [4], less than 4.52.
On to `CNC(=O)c1ccc(-c2cnc3[nH]c(=O)n(CC4CCCCC4)c3n2)cc1`, for which, in data set [1], the pIC50 is 6.92.
Turning to `O=c1[nH]c2ncc(-c3ccc4[nH]ccc4c3)nc2n1CC1CCOCC1`, the negative logarithm of the IC50 (pIC50) in the data set with PC-3 was 6.22; in data set [2], 6.64; in data set [3], 7.30; in data set [1], 7.68; in data set [4], less than 4.52.
As for `O=c1[nH]c2ncc(-c3ccc(-c4cn[nH]c4)cc3)nc2n1CC1CCCCC1`, the figures for the pIC50 in data set [1] and in data set [4] were 6.92 and less than 4.52, respectively.
`O=c1[nH]c2ncc(-c3ccc4[nH]ncc4c3)nc2n1CC1CCCCC1`: the pIC50 is 5.67 in the data set with PC-3, 6.20 in data set [2], 6.72 in data set [1] and 4.90 in data set [4].
Regarding `NC(=O)c1ccc(-c2cnc3[nH]c(=O)n(CC4CCCCC4)c3n2)cc1`, the pIC50 in data set [1] is 7.15; in data set [4], less than 4.52.
`CN1CCC(Cn2c(=O)[nH]c3ncc(-c4ccc(O)cc4)nc32)CC1`: in data set [1], the pIC50 is 4.85.
In the case of `CC(C)n1c(=O)[nH]c2ncc(-c3ccc(O)cc3)nc21`, the pIC50 in data set [1] was 5.98.
For `NC(=O)[C@H]1CC[C@H](n2c(=O)[nH]c3ncc(-c4ccc(O)cc4)nc32)CC1`, the pIC50 with PC-3 was less than 5.30; in data set [2], less than 5.30; in data set [3], less than 5.30; in data set [1], 6.75.
